Entries after “also recorded” stand apart in the source; their conditions may differ.

These results are taken from patent US20100173018A1, “Microbicidal Compositions Including Activated Nitrogenous Compound and 1,4-Bis(Bromoacetoxy)-2-Butene, and Methods Of Using The Same” (BUCKMAN LABORATORIES INTERNATIONAL, INC., priority 2009, published 2010).

For data set [1] the following is noted: cited from earlier work.
The subject of data set [2] is Enterobacter aerogenes (ATCC 13048). The data set is described as follows: Evaluation of bactericidal activity (MIC, Bactometer impedance) with checkerboard synergy evaluation. The data set is classed as cell-based. To be noted: value <1 denotes synergistic activity. Here is the method: A. Evaluation of Bactericidal Activity. This test method provides a technique for testing compounds for their effectiveness to control bacterial growth. MIC values represent the Minimum Inhibitory Concentration, defined as the lowest level of compound required to produce a 90% kill of a given organism.
Cell suspension from an 18 to 24 hour bacterial culture of Staphylococcus aureus (ATCC 6538) or Bacillus subtilis (ATCC 6633) or Enterobacter aerogenes (ATCC 13048) to attain a desired cell concentration. Using a McFarland nephelometer barium sulfate standard or some other suitable method, adjust the concentration of the bacterial suspension so that a final concentration of between 1×10^4 and 1×10^5 cells per ml is achieved when 100 μl of the inoculum is added to 5 ml of basal salts substrate. […]
• Bacterial growth in the tubes is measured by monitoring impedance levels on the Bactometer. • Dispense 1 ml aliquots of Modified WILKINS Chalgren Broth (Bactometer Media) into Bactometer wells; add 25 μl of treatment from the incubated tubes. […]
Synergy was measured by checkerboards dilutions (Yan and Hancock, 2001), in which one compound is diluted along the rows of test tubes and the other is diluted along the columns. […] The result is expressed as the Fractional Inhibitory Concentration Index (FIC), calculated as follows: […]

Data set [3] deals with white water (ww) sample with a sulfite content of 12.8 ppm. Kind of data set: Synergism in the presence of sulfite: ATP measurement in white water, percent inhibition. The settings on record: 10 min; BBAB 80 ppm active alone; ATP at 10 min; sulfite 12.8 ppm. The data set is classed as cell-based. Here is the method: Synergism in the presence of sulfite. The effectiveness of the actives and the blend were evaluated in a white water (ww) sample with a sulfite content of 12.8 ppm. ATP measurements were performed in duplicate and percent inhibition calculated as a measure of antimicrobial efficacy. The raw data was converted to percent inhibition with use of the following formulation: % Inhibition=[(u−t)/u]×100 where: u=ATP value of untreated ww at time10 min t=ATP value of treated ww at time10 min.

Data set [4] has as its system filamentous bacteria isolate from a paper mill slime deposit (Flectobacillus species). The data set is described as follows: Synergy evaluation against filamentous bacteria (checkerboard, CFU on agar). The data set is classed as cell-based. How it is done: Synergy evaluation against filamentous bacteria. The checkerboard method was used to determine the Fractional Inhibitory Index (FIC) as a predictor of synergy between Activated N-Compound and Busan 1210 (BBAB) against a pure isolate of filamentous bacteria cultured from a paper mill slime deposit. The isolate was identified by 16 S ribosomal RNA sequencing technique. Gene assembly and data analysis was performed using MicroSeq data analysis and identification software; the isolate was identified as a Flectobacillus species. Modified Basal Salts Buffer was inoculated with a suspension of the bacterial isolate to yield a final concentration of 1×10^5 cells per ml. Using a delay between additions, Busan 1210 (BBAB) was added 20 minutes prior to the addition of monochloramine (MCA). After a 3 hours exposure time, the treatments were sub-cultured onto Nutrient and Plate Count Agar (PCA) and incubated at 28° C. for 48 hours. The plates were examined for colony forming units (CFU) and compared to untreated control. [formula] Synergy is expressed as a Fractional inhibitory Concentration Index (FIC), calculated as follows: FIC=[A]/[a]+[B]/[b] where, [A] and [B]=MIC of the compounds A and B when in combination [a] and [b]=MIC of the compounds A and B when alone

`O=C(CBr)OC/C=C\COC(=O)CBr` [BBAB, 1,4-bis(bromoacetoxy)-2-butene]: the “solubility in isopropenol, n-butenol, glycerol, ethylene glycol, propylene glycol, and diethylene glycol” value in data set [1] (alcohols and glycols as listed) is recorded as “soluble”. Also, the “solubility in dimethylformamide and ethylene glycol monomethylether” value in data set [1] (dimethylformamide, ethylene glycol monomethylether) is given as “soluble”. For the same compound, in data set [1] (water), the solubility in water entry was “extremely low; also recorded: water insoluble”. Moreover, the “[A]/MICA + [B]/MICB (FIC index)” value in data set [2] turned out to be 1.0. Moreover, the inhibition at 80 ppm in data set [3] was 22.8%.

As for `NCl` [MCA, monochloramine], the FIC in data set [4] (FIC=[A]/[a]+[B]/[b]) is listed as 1.0. In data set [4] (alone, 3 hours exposure, sub-cultured 28° C. for 48 hours), the “MIC of compound when alone ([a] / [b])” value is reported as 10.0(a).

One may read the inhibition as the share of the control response that was lost under treatment.
